{
  "source": "patent US12312599B2",
  "about": "“Methods, compositions, and kits for producing beige adipocytes and treating metabolic disorders” (MaineHealth, priority 2018, dated 2025)",
  "key": {"FD-MSCs [1]": {"test_system": "FD-MSCs", "experiment": "BODIPY lipid stain of FD-MSCs during adipogenic differentiation", "format": "cell-based, human", "protocol": "All assays were performed between 7 and 15 passages. For osteocyte differentiation, mature MSCs were grown in 24 well culture plates to 100% confluency in MesenCult-ACF and induced to differentiate in OsteoLife Complete Osteogenesis Medium (Lifeline Cell Technology) for 21 days prior to staining with Lifeline Alizarin Red Stain to visualize calcium deposition. For chondrocyte differentiation. For beige adipogenic precursor generation, cells were grown in 24 well culture plates to 90% confluence and treated with 5 uM SB413542 (Sigma) and 10 nM human IL-4 (Peprotech) for 2 days. For beige adipogenic induction, adipogenic precursors are differentiated for 3 days with adipogenic medium consisting of T3 (2 nM), insulin (170 nM), rosiglitazone (1 μM), SB413542 (5 uM), IBMX (0.5 mM), dexamethasone (5 μM) and indomethacin (125 μM) in EGM-2 medium (Lonza) supplemented with the BulletKit minus FGF2 (modified from^33). Thereafter, cells are maintained in adipogenic medium without IBMX, dexamethasone and indomethacin. The medium was changed every 3 days and adipocytes were fully differentiated by 9-12 days as determined by lipid accumulation and peak expression of UCP1. Cell Isolation, Expansion and Differentiation of Interscapular Brown Adipose Tissue Preadipocytes • 1. Prior to adipose cell isolation, warm DMEM, FBS and cell wash buffer to room temperature. • 2. In a laminar flow cabinet for cell culture, place 5 g of adipose tissue on a 100×20 mm dish. Suspend tissue in 1 mL of Adipose Tissue Dissociation Kit enzyme digest cocktail and finely mince with a razorblade. • 3. […] Incubate tube at 37° C. on a rotating nutator for 30 minutes. During incubation period, briefly vortex sample for 5 s in 10-minute intervals. • 5. Transfer cells to a 15 mL tube and add 5 mL of DMEM. Filter cell suspension through a 100 μm strainer into a new 15 mL tube and centrifuge at 300 g for 5 minutes to form a pellet. • 6. Remove supernatant and leave behind […] of DMEM. Resuspend cell pellet in 10 mL of DMEM containing 10% FBS and plate in a 100×20 mm dish for expansion. Agitate plate to spread cells evenly on well surface and incubate plate at 37° C. in a 5% CO2 incubator undisturbed. Change 100% of medium every day. • 7. Upon 80% confluence, split and passage cells at a ratio of 1:6. • 8. Prepare for passage by warming cell wash buffer and cell culture medium (DMEM containing 10% FBS) to room temperature. Warm TrypLE dissociation reagent to 37° C. • 9. Aspirate cell culture medium from wells and wash once with PBS. Remove PBS and add 500 μL of pre-warmed TrypLE reagent to each well of a 6 well plate. Scale TrypLE amount for larger tissue culture plates accordingly. • 10. Incubate culture plate at 37° C. for 5 minutes. […]"}, "FD-MSCs [2]": {"test_system": "FD-MSCs", "experiment": "UCP1 expression time course of FD-MSCs during adipogenic differentiation", "format": "cell-based, human", "protocol": "All assays were performed between 7 and 15 passages. For osteocyte differentiation, mature MSCs were grown in 24 well culture plates to 100% confluency in MesenCult-ACF and induced to differentiate in OsteoLife Complete Osteogenesis Medium (Lifeline Cell Technology) for 21 days prior to staining with Lifeline Alizarin Red Stain to visualize calcium deposition. For chondrocyte differentiation. For beige adipogenic precursor generation, cells were grown in 24 well culture plates to 90% confluence and treated with 5 uM SB413542 (Sigma) and 10 nM human IL-4 (Peprotech) for 2 days. For beige adipogenic induction, adipogenic precursors are differentiated for 3 days with adipogenic medium consisting of T3 (2 nM), insulin (170 nM), rosiglitazone (1 μM), SB413542 (5 uM), IBMX (0.5 mM), dexamethasone (5 μM) and indomethacin (125 μM) in EGM-2 medium (Lonza) supplemented with the BulletKit minus FGF2 (modified from^33). Thereafter, cells are maintained in adipogenic medium without IBMX, dexamethasone and indomethacin. The medium was changed every 3 days and adipocytes were fully differentiated by 9-12 days as determined by lipid accumulation and peak expression of UCP1. Cell Isolation, Expansion and Differentiation of Interscapular Brown Adipose Tissue Preadipocytes • 1. Prior to adipose cell isolation, warm DMEM, FBS and cell wash buffer to room temperature. • 2. […]"}, "[3]": {"conditions": "SB throughout the adipogenic differentiation period, day 12"}},
  "data": [
    {"smiles": "NC(=O)c1ccc(-c2nc(-c3ccc4c(c3)OCO4)c(-c3ccccn3)[nH]2)cc1", "note": "[SB, SB431542]", "values": [
      {"measurement": "lipid accumulation", "setting": "FD-MSCs [1]; SB for 2 days before and throughout the 12-day adipogenic differentiation", "value": "greatest amount of lipid accumulation"},
      {"measurement": "additional increase in lipid droplet staining", "setting": "FD-MSCs [1]; SB prior to and during differentiation, versus SB during differentiation alone", "value": 45, "unit": "%"},
      {"measurement": "cells in culture with lipid content", "setting": "FD-MSCs [1]; [3]", "value": "approximately 50%"},
      {"measurement": "increase in lipid content", "setting": "FD-MSCs [1]; [3]", "value": 5, "unit": "fold"},
      {"measurement": "shift of the peak of UCP1 expression (earlier)", "setting": "FD-MSCs [2]; additional SB pretreatment prior to adipogenic differentiation", "value": 3, "unit": "days"},
      {"measurement": "UCP1 gene expression (qPCR)", "setting": "FD-MSCs [2]; differentiated in the presence of SB", "value": "large increase"}
    ]}
  ]
}
